Results from patent publication US7226730B1, “Transgenic animals and cell lines for screening drugs effective for the treatment or prevention of Alzheimer's Disease” (The General Hospital Corporation, priority 1997, dated 2007).

Test system: CYZ neuronal cells stably transfected with AD7c-NTP
Assay: Crystal Violet viability assay in IPTG-induced AD7c-NTP expressing neuronal cells
Conditions: for effect on cell death (percent change in viability, induced over uninduced) / effect on nitric oxide synthase toxicity attributable to AD7c-NTP expression: CYZ cells induced to express AD7c-NTP, FIG. 12; for cell viability under oxidative stress toxins: LacB and LacF cells, 3 mM IPTG 24 or 48 hrs, toxin 6 or 24 hrs, vs LacA-control, FIGS. 10A and 10B
Protocol: AD7c-NTP was cloned into a Lac-Switch expression vector (Stratgene), and CYZ neuronal cells were stably transformed with the construct. Several cell lines were selected that expressed AD7c-NTP at various levels, Lac A-Lac F, after induction of protein expression with IPTG.
Briefly, 10^4 cells/well were seeded into 96-well plates, and were induced to express AD7c-NTP for a period of 6–18 hrs; additionally, in some experiments, cells were exposed to toxins or protective agents for a similar period of time. At the end the treatment period, cells were fixed, permeabilized and immunostained with the appropriate antibody following the ABS procedure. Quantitation was done by incubating cells with a soluble chromagen, stopping the reaction with 2M H2SO4 and determining chromagen absorbance in an automated ELISA reading machine.
For Experiments determining cell viability, after culture and treatment as for the MICE assay, culture media was replaced with a Crystal Violet/PBS/formalin solution. After staining, cells were rinsed thoroughly and lysed with a PBS/1% SDS solution, and absorbance was determined with an automated ELSA reader. Results were graphed as percent viability.

Row | Structure (SMILES) | effect on cell death (percent change in viability, induced over uninduced) | cell viability under oxidative stress toxins | effect on nitric oxide synthase toxicity attributable to AD7c-NTP expression
1 | OO [Hydrogen peroxide] | exacerbate cell death | increased hypersensitivity | 
2 | COC(=O)[C@@H](N)CCCNC(=N)N[N+](=O)[O-] [L-NAME] |  |  | inhibit or reduce
3 | N=C(N)NCCC[C@H](N)C(=O)O [L-arginine] |  |  | inhibit or reduce
4 | CCN(CC)C(=S)S [diethyldithiocarbamic acid] | exacerbate cell death | increased hypersensitivity | 
